From patent publication US12138293B2 (priority 2020, dated 2024)
Several values for one entry are separate records, joined by “and”; a condition that tells them apart may be missing. Equal values may be shown once. Read-outs that look alike come from different tables or passages of the source. Residues, ends and D or L forms follow the SMILES beside them.

What was measured:
[1] = tested on: eye of Dutch Belted rabbits; settings: rabbit, in vivo
[2] = tested on: transepithelial PTK injury of rabbit corneas; set-up: species or system rabbits; settings: in vivo
[3] = tested on: nitrogen mustard (NM)-exposed cornea; set-up: species or system New Zealand white rabbits; settings: rabbit, in vivo
[4] = format: physicochemical
[5] = rabbit, in vivo
[6] = tested on: heptanol-induced corneal erosion (chemical burn injury) in rabbit eyes; settings: in vivo
in vivo = settings: rabbit
[7] = rabbit, in vivo; remark: listed apart in the source

In the case of CC[C@H](C)[C@H](NC(=O)[C@H](CCC(=O)O)NC(=O)[C@H](CC(C)C)NC(=O)[C@H](CC(=O)O)NC(=O)[C@H](CC(=O)O)NC(=O)[C@@H]1CCCN1C(=O)[C@H](CCCNC(=N)N)NC(=O)[C@@H]1CCCN1C(=O)[C@H](CCCNC(=N)N)NC(=O)[C@H](CCCCN)NC(=O)[C@H](CCCCN)NC(=O)[C@H](Cc1c[nH]c2ccccc12)NC(=O)[C@@H]1CCCN1C(=O)[C@H](CCCCN)NC(=O)[C@H](CCCNC(=N)N)NC(=O)[C@H](CCCNC(=N)N)NC(=O)[C@H](CC(N)=O)NC(=O)[C@@H]1CCCN1C(=O)[C@H](Cc1ccccc1)NC(=O)[C@H](Cc1c[nH]c2ccccc12)NC(=O)[C@@H](NC(=O)[C@H](CCCCN)NC(=O)[C@@H]1CCCN1C(=O)[C@H](CCC(N)=O)NC(=O)[C@H](CCCNC(=N)N)NC(=O)CCCCCNC(=O)CCCC[C@@H]1SC[C@@H]2NC(=O)N[C@@H]21)[C@@H](C)CC)C(=O)O [aCT1, RQPKIWFPNRRKPWKK RPRPDDLEI] (HELM PEPTIDE1{[O=C1N[C@H]2[C@H](CS[C@H]2CCCCC(=O)[*:2])N1].[O=C(CCCCCN[*:1])[*:2]].R.Q.P.K.I.W.F.P.N.R.R.K.P.W.K.K.R.P.R.P.D.D.L.E.I}$$$$V2.0; N-terminus and C-terminus assumed), the “Contact of saline formulation with the ocular surface” value [1] is reported as “did not remain in contact with the ocular surface for a period of time sufficient”, the “Corneal healing (fluorescein staining)” value [2] is reported as “accelerated corneal healing” and the “Corneal edema (corneal thickness)” value [3] is reported as “limited corneal edema damage”. For the same compound, the Corneal fibroblasts/keratocytes [3] was “protection of corneal fibroblasts/keratocytes”, the “Expression of COX-2” value [3] was “reduced” and the “Formation of new blood vessels in the corneal stroma” value [3] was “limited the formation of new blood vessels”. For the same compound, the “Inflammatory cell infiltration in the corneal stroma (H&E)” value [3] was “significantly decreases inflammatory cell infiltration”, the “MMP-9 expression in the stroma” value [3] was “reduction in MMP-9 expression” and the VEGF expression [3] was “decreased”. The “Loss of Purity” value ([4]; pH 6.5) was 0.67% and 0.24% and 0.03% and 0.76% and 1.05%, the “Loss of Purity (%)” value ([4]; pH 6.5) was 0.44% and 0.39% and 0.30% and 0.19% and 0.06% and the “Loss of Purity (%)” value ([4]; pH 7) was 0.33%. For the same compound, the “Loss of Purity (%)” value ([4]; pH 7.5) was 0.50%, the Vitreous humor levels [5] was “quantifiable levels” and the “Whole blood concentration, all other samples” value [5] was “below the lower limit of quantitation (LLOQ)”. For the same compound, the “Corneal healing measured by central corneal thickness” value [6] was “accelerated corneal healing”, the “Corneal healing measured by fluorescein staining” value [6] was “accelerated corneal healing” and the Tmax (in vivo; both) was 15 min. The tissue level at time at 0.25 h (in vivo; both, topical or ocular, 0.1 umol/eye/dose, Retinal tissue concentration) was 1.91 to 24.2 ng/g, the tissue level at time at 0.25 h (in vivo; female, topical or ocular, 0.1 umol/eye/dose, Cornea mean level) was 181 ± 50 ng/g and the tissue level at time at 0.25 h (in vivo; female, topical or ocular, 0.1 umol/eye/dose, Palpebral conjunctiva highest mean concentration) was 2730 ± 697 ng/g. It also gave a level at 0.25 h (in vivo; male, topical or ocular, 0.1 umol/eye/dose) of 3.26 ± 5.28 ng/mL, a tissue level at time at 0.25 h (in vivo; male, topical or ocular, 0.1 umol/eye/dose, Aqueous humor mean level) of 115 ± 76.3 ng/g and a tissue level at time at 0.25 h (in vivo; male, topical or ocular, 0.1 umol/eye/dose, Palpebral conjunctiva highest mean concentration) of 939 ± 228 ng/g. The “Maximum tolerated dose (MTD)” value [7] was “no maximum tolerated dose (MTD) was identified”, the “Microscopic findings in the eye tissues” value [7] was “no microscopic findings” and the “No observed adverse effect level (NOAEL)” value [7] was 1.0 μmol/eye. For the same compound, the “Tolerability (cage-side or clinical observations, body weight, clinical pathology, organ weight, necropsy)” value [7] was “well-tolerated and did not result in any adverse findings”.
